Results as given in US9193746B2, “Luminescent metal complexes and associated technology” (BIOTIUM, INC., priority 2006, dated 2015).

System: electrophoretically separated proteins (Precision Plus Protein Standard) in a SDS-PAGE gel
Test: Detection of electrophoretically separated proteins in a SDS-PAGE gel by luminescent staining
Conditions: for Staining of proteins in gel (yes/no): Example 18, FIG. 4: 1.5 μM complex, 30% MeOH, 14% acetic acid, room temperature, 90 minutes
Experimental: A gel preparation procedure is now described. Five μL of an unstained Precision Plus Protein Standard (Catalog No. 161-0363 from Bio-Rad Laboratories (Hercules, Calif.) (hereinafter, “Bio-Rad”)) were separated on the left column of a polyacrylamide pre-cast gel (Catalog No. 161-1176, a Ready Gel from Bio-Rad) in running buffer containing 20 mM glycine, 2.5 mM Tris and 0.1% SDS, using a standard SDS-PAGE procedure. Five 5 μL of the same standard diluted five times were separated on the right column of the polyacrylamide pre-cast gel under the same conditions.
The foregoing procedure was used to prepare one gel, which was further processed as described below using a particular staining solution. Separately, the same procedure was used to prepare another gel, which was further processed as described below using a different staining solution.
At the end of each of these periods, the gel was taken out of the solution, illuminated, and photographed, and if a further period remained, returned to the solution until the end of that further period. A UV transilluminator (300-nm wavelength) was used to illuminate the gel and Polaroid 667 black-and-white film was used to photograph the gel. The gel was not destained before being photographed.
A gel was prepared according to the gel preparation procedure described in connection with Example 15. The gel was then processed as now described. The gel was placed in a fixation solution comprising 50% MeOH and 7% acetic acid for 30 minutes to fix the gel. […] The gel was not destained before being photographed.
A gel was prepared according to the gel preparation procedure described in connection with Example 15. The gel was then processed as now described. The gel was placed in a fixation solution comprising 50% MeOH and 7% acetic acid for 1 hour to fix the gel. […] The gel was not destained before being photographed.
Three gels were prepared, each according to the gel preparation procedure described in connection with Example 15. One of the gels was stained using a staining solution comprising 1.5 μM of [Ru(bpy)3]Cl2 (Aldrich, Milwaukee, Wis.), wherein “bpy” is unsubstituted 2,2′-bipyridine, 30% MeOH and 14% acetic acid. Another of the gels was stained using a staining solution comprising 1.5 μM of [Ru(1,10-phenanthroline)3]Cl2 (Aldrich, Milwaukee, Wis.), 30% MeOH and 14% acetic acid. […] Each gel was stained by incubating it in the appropriate staining solution at room temperature for 90 minutes, whereupon each gel was taken out of the staining solution, illuminated and photographed in the manner described in connection with Example 15. No gel was destained before being photographed.

| Molecule | Staining of proteins in gel (yes/no) (not destained) | Protein staining in gel (sensitivity, background) (Example 17, FIG. 3: fixed gel, 2 μM complex, 1% ethanol in H2O, overnight, not destained) | Protein staining compared with SYPRO Ruby stain (Example 17, FIG. 3 versus FIG. 1, without destaining) |
| --- | --- | --- | --- |
| [Cl][Ru][Cl].c1cnc2c(c1)ccc1cccnc12.c1cnc2c(c1)ccc1cccnc12.c1cnc2c(c1)ccc1cccnc12 [[Ru(1,10-phenanthroline)3]Cl2] | failed to stain proteins | – | – |
| [Cl][Ru][Cl].c1ccc(-c2ccccn2)nc1.c1ccc(-c2ccccn2)nc1.c1ccc(-c2ccccn2)nc1 [[Ru(bpy)3]Cl2] | failed to stain proteins | – | – |
| Re[(bathocuproin disulfonate)(CO)3(4-phenylpyridine)]^−Na^+ [Complex No. 2] | – | good sensitivity and relatively low background | performing at least as well as, if not outperforming, SYPRO Ruby |
